Earlier results as cited in patent publication US4410715A, “Process for the epoxidation of olefins using a group V metal co-catalyst I and a phenolic hydrocarbon co-catalyst II” (Exxon Research & Engineering Co., priority 1982, dated 1983).

Conditions: aqueous solution at 25° C.

First: Oc1ccc(Cl)cc1 [p-chlorophenol]
Second: Cc1ccc(O)cc1 [p-cresol]
The pKa of the first is lower: 9.2 for the first, 10.2 for the second.

First: CC(C)(C)c1ccc(O)c(C(C)(C)C)c1 [2,4-di-t-butyl phenol]
Second: Oc1ccc(Cl)cc1Cl [2,4-DCP, 2,4-dichlorophenol]
The pKa of the first is higher: 11.6 for the first, 7.7 for the second.

Going from `Oc1ccccc1Cl` [o-chlorophenol] to `COc1ccccc1O` [2-methoxy-phenol, 2-methoxyphenol], the pKa rises from 8.5 to 10.0.

Going from `Oc1c(Cl)cccc1Cl` [2,6-DCP, 2,6-dichlorophenol] to `Oc1cccc(Cl)c1` [m-chlorophenol], the pKa rises from 6.8 to 8.8.

Same assay, conditions: in place of a pKa value

In the case of `C1COCCO1` [1,4-dioxane, reference compound], the “basicity (footnote to pKa column, in words)” value is listed as “basic”.
